Values of other authors as cited in patent US20250387447A1, “Herbal composition for use in the improvement of physical and mental health recovery and maintenance, including the improvement of cognitive function or prevention of cognitive decline” (Conka Elite Ltd, priority 2022, published 2025).

Test system: neurons

COc1cc(/C=C/C(=O)CC(=O)/C=C/c2ccc(O)c(OC)c2)ccc1O [curcumin]
neuron death caused by oxygen-glucose deprivation: protects neurons from death | expression of thioredoxin (Nrf2 pathway): activate the expression of thioredoxin
